Results reported in ChEMBL document CHEMBL5727031, “Metabotropic glutamate receptor negative allosteric modulators (NAMS) and uses thereof” (2018).

Legend:
[1] = (§1) In Vitro GIRK Thallium Flux Assay (2.5 minutes): Human Embryonic Kidney (HEK-293) cell lines co-expressing rat mGlu receptors 2, 3, 4, 6, 7 or 8 and G protein-coupled inwardly-rectifying potassium (GIRK) channels_ENREF_54 were grown in Growth Media containing 45% DMEM, 45% F-12, 10% FBS, 20 mM HEPES, 2 mM L-glutamine, antibiotic/antimycotic, non-essential amino acids, 700 μg/ml G418, and 0.6 μg/ml puromycin at 37° C. in the presence of 5% CO2. All cell culture reagents were purchased from Invitrogen Corp. (Carlsbad, Calif.) unless otherwise noted. Compound activity at the group II (mGlu2 and mGlu3) mGlus was assessed using thallium flux through GIRK channels. Briefly, cells were plated into 384-well, black-walled, clear-bottomed poly-D-lysine-coated plates at a density of 15,000 cells/20 μL/well in DMEM containing 10% dialyzed FBS, 20 mM HEPES, and 100 units/mL penicillin/streptomycin (assay media). Plated cells were incubated overnight at 37° C. in the presence of 5% CO2. The following day, the medium was exchanged from the cells to assay buffer [Hanks' balanced salt solution (Invitrogen) containing 20 mM HEPES, pH 7.3] using an ELX405 microplate washer (BioTek), leaving 20 μL/well, followed by the addition of 20 μL/well FluoZin2-AM (330 nM final concentration) indicator dye (Invitrogen; prepared as a stock in DMSO and mixed in a 1:1 ratio with Pluronic acid F-127) in assay buffer. Cells were incubated for 1 h at room temperature, and the dye exchanged to assay buffer using an ELX405, leaving 20 μL/well. Test compounds were diluted to 2 times their final desired concentration in assay buffer (0.3% DMSO final concentration). Agonists were diluted in thallium buffer [125 mM sodium bicarbonate (added fresh the morning of the experiment), 1 mM magnesium sulfate, 1.8 mM calcium sulfate, 5 mM glucose, 12 mM thallium sulfate, and 10 mM HEPES, pH 7.3] at 5 times the final concentration to be assayed. Cell plates and compound plates were loaded onto a kinetic imaging plate reader (FDSS 6000 or 7000; Hamamatsu Corporation, Bridgewater, N.J.). Appropriate baseline readings were taken (10 images at 1 Hz; excitation, 470±20 nm; emission, 540±30 nm) and test compounds were added in a 20 μL volume and incubated for either 2.5 min or 60 min as indicated before the addition of 10 μL of thallium buffer with or without agonist. After the addition of agonist, data were collected for approximately an additional 2.5 min. Data were analyzed using Excel (Microsoft Corp, Redmond, Wash.). The slope of the fluorescence increase beginning 5 s after thallium/agonist addition and ending 15 s after thallium/agonist addition was calculated, corrected to vehicle and maximal agonist control slope values, and plotted in using either XLfit (ID Business Solutions Ltd) or Prism software (GraphPad Software, San Diego, Calif.) to generate concentration-response curves. Potencies were calculated from fits using a four-point parameter logistic equation. For concentration-response curve experiments, compounds were serially diluted 1:3 into 10 point concentration response curves and were transferred to daughter plates using an Echo acoustic plate reformatter (Labcyte, Sunnyvale, Calif.). Test compounds were applied and followed by EC80 concentrations of glutamate.
[2] = as §1, with “Assay (60” for “Assay (2.5”, “additional 60” for “additional 2.5”
[3] = as §1; remark: listed apart in the source
[4] = as §1, with “Assay (60” for “Assay (2.5”, “additional 60” for “additional 2.5”; remark: listed apart in the source

SMILES | EC50 ([1]; HEK293, 2.5 min) [µM] | EC50 ([2]; HEK293, 1 h) [µM] | EC50 ([3]; HEK293, 2.5 min) [µM] | EC50 ([4]; HEK293, 1 h) [µM] | EC50 [1] [µM] | EC50 [2] [µM] | EC50 [3] [µM] | EC50 [4] [µM]
Clc1ccccc1-c1cccc(-c2csc(-c3ccccc3)n2)c1 | > 30 | > 30 | > 10 | > 10 |  |  |  | 
c1ccc(-c2cccc(-c3csc(-c4ccc5ccccc5c4)n3)c2)cc1 | > 10 | 4.98 | > 30 | > 10 |  |  |  | 
C(=C\c1nc(-c2cccc(-c3ccccc3)c2)cs1)/c1ccccc1 | 3.47 | > 10 | > 10 | > 10 |  |  |  | 
COc1ccc(-c2nc(-c3cccc(-c4ccccc4)c3)cs2)cc1OC | 2.58 | 1.1 | 4.02 | > 10 |  |  |  | 
Fc1ccc(-c2cccc(-c3csc(-c4cc5ccccc5o4)n3)c2)cc1 | 2.57 | 1.93 | 3.32 | > 10 |  |  |  | 
Fc1ccccc1-c1cccc(-c2csc(-c3ccccc3)n2)c1 | 1.59 | 3.4 | > 30 | > 30 |  |  |  | 
Fc1ccc(-c2cccc(-c3csc(-c4cc5ccccc5s4)n3)c2)cc1 | > 10 | 1.92 | > 10 | > 10 |  |  |  | 
Fc1ccc(-c2ccc(-c3csc(-c4ccccc4)n3)s2)cc1 | > 10 | > 10 | > 10 | > 10 |  |  |  | 
Clc1ccc(-c2cccc(-c3csc(-c4ccccc4)n3)c2)cc1 | 0.57 | 0.8 | 0.79 | 1.33 |  |  |  | 
Fc1ccc(-c2cccc(-c3csc(-c4ccc(C(F)(F)F)nc4)n3)c2)cc1 | 1.35 | 0.85 | 3.11 | 2.55 |  |  |  | 
Fc1ccc(-c2csc(-c3ccccc3)n2)cc1 | > 10 | > 30 | > 30 | > 30 |  |  |  | 
c1ccc(-c2cccc(-c3nsc(-c4ccccc4)n3)c2)cc1 | 0.32 | 0.05 | 2.28 | 0.45 |  |  |  | 
c1ccc(-c2cccc(-c3coc(-c4ccccc4)n3)c2)cc1 | > 10 | > 10 | > 30 | > 30 |  |  |  | 
Fc1ccc(-c2cccc(-c3csc(-c4ccccc4)n3)c2)cc1 | 0.33 | 0.48 | 1.21 | > 10 |  |  |  | 
Fc1ccc(-c2cccc(-c3nsc(-c4ccoc4)n3)c2)cc1 | 3.63 | 3.71 | > 10 | > 10 |  |  |  | 
Fc1ccc(-c2cccc(-c3csc(-c4ccccc4)c3)c2)cc1 | > 10 | > 10 | > 10 | > 10 |  |  |  | 
Fc1cccc(-c2cccc(-c3csc(-c4ccccc4)n3)c2)c1 | 0.64 | 0.35 | > 10 | > 30 |  |  |  | 
O/N=C\c1cc(-c2cccc(-c3csc(-c4ccccc4)n3)c2)ccc1F | > 30 | > 10 | > 30 | > 10 |  |  |  | 

SMILES | EC50 ([1]; HEK293, 2.5 min) [µM] | EC50 ([2]; HEK293, 1 h) [µM] | EC50 ([3]; HEK293, 2.5 min) [µM] | EC50 ([4]; HEK293, 1 h) [µM] | EC50 [1] [µM] | EC50 [2] [µM] | EC50 [3] [µM] | EC50 [4] [µM]
c1ccc(-c2cccc(-c3nc(-c4ccccc4)n(-c4ccccc4)n3)c2)cc1 | > 10 | > 10 |  |  |  |  |  | 
Fc1cccc(-c2cccc(-c3nsc(-c4ccoc4)n3)c2)c1 | 0.17 | 0.11 | 3.43 | 1.23 |  |  |  | 
Fc1ccc(-c2cccc(-c3csc(-c4ccco4)n3)c2)cc1 | 2.4 | > 10 | > 10 | > 30 |  |  |  | 
O=[N+]([O-])c1cccc(-c2cccc(-c3csc(-c4ccccc4)n3)c2)c1 | > 10 | > 10 | > 10 | > 30 |  |  |  | 
Cc1nc(-c2cccc(-c3ccc(F)cc3)c2)cs1 | > 10 | > 10 | > 10 | > 10 |  |  |  | 
c1ccc(-c2cccc(-c3csc(-c4cccc5ccccc45)n3)c2)cc1 | > 10 | > 10 | > 30 | > 30 |  |  |  | 
Clc1cccc(-c2cccc(-c3csc(-c4ccccc4)n3)c2)c1 | > 10 | > 10 | > 10 | > 10 |  |  |  | 
Clc1ccc(-c2nc(-c3cccc(-c4ccccc4)c3)cs2)cn1 | 3.83 | 0.27 | > 10 | 0.83 |  |  |  | 
Cc1cc2c(cc1C(F)(F)F)NC(=O)CC(c1cccc(C#Cc3ccccc3)c1)=N2 |  | > 10 |  | > 10 |  |  |  | 
O=C(O)c1cc(F)cc(-c2cccc(-c3nc(-c4ccoc4)cc(C(F)(F)F)n3)c2)c1 |  |  |  |  | 0.35 | 0.31 | 2.21 | 1.56
Fc1ccccc1-c1cccc(-c2nsc(-c3ccccc3)n2)c1 | 0.89 | 0.11 | > 10 | > 10 |  |  |  | 
Fc1ccc(-c2cccc(-c3csc(-c4ccoc4)n3)c2)cc1 | 2.26 | 2.5 | > 10 | > 10 |  |  |  | 
COc1ccccc1-c1cccc(-c2csc(-c3ccccc3)n2)c1 | 1.81 | 1.35 | > 10 | > 10 |  |  |  | 
COc1ccc(-c2cccc(-c3csc(-c4ccccc4)n3)c2)cc1 | 1.73 | 2.14 | 1.77 | 2.86 |  |  |  | 
Fc1ccc(-c2cccc(-c3nsc(-c4ccccc4)n3)c2)cc1 | 0.1 | 0.05 | 0.52 | 0.46 |  |  |  | 
Cc1cc2c(cc1C(F)(F)F)NC(=O)CC(c1cccc(Oc3ncccn3)c1)N2 (racemic) | > 10 |  |  |  |  |  |  | 
Cc1cc(-c2cccc(C3CC(=O)Nc4cc(NC(=O)OCc5ccccc5)ccc4N3)c2)cc(C)n1 (racemic) | > 10 |  |  |  |  |  |  | 
